Laboratory results taken from US10918713B2, “Epitopes from allergen proteins and methods and uses for immune response modulation” (LA JOLLA INSTITUTE FOR ALLERGY AND IMMUNOLOGY, priority 2012, dated 2021).
Where “and” joins values, the source holds several entries; their conditions need not be identical. Equal values may be shown once.

Tests used:
Assay type in all cases: cell-based, human
[1] = system: PBMC from allergic donors; experiment: IL-5 ELISPOT with extract-stimulated short-term lines; conditions: positive donor/peptide response
Procedure: (§1) Spots were counted by computer-assisted image analysis (Zeiss, KS-ELISPOT reader, Munich, Germany).
(§2) Each assay was performed in triplicate. The level of statistical significance was determined with a Student's t-test using the mean of triplicate values of the response against relevant pools or individual peptides versus the response against the DMSO control.

[2] = system: PBMC from allergic donors; experiment: IFN-γ ELISPOT with extract-stimulated short-term lines; conditions: positive donor/peptide response
Procedure: as §1, §2

[3] = system: PBMC from allergic donors; experiment: Dual ELISPOT, total IL-5 and IFN-γ response (SFC); conditions: sum of IFNg and IL-5
Procedure: as §1, §2

SMILES	Response (SFC/10^6) IL-5 ([1]; one donor per table line)	Response (SFC/10^6) IFNg ([2]; one donor per table line)	Response (SFC/10^6) Total ([3]; one donor per table line)	Response (SFC/10^6) IL-5 ([1]; each table line is one donor)	Response (SFC/10^6) Total ([3]; each table line is one donor)	Response (SFC/10^6) IFNg ([2]; each table line is one donor)
CC[C@H](C)[C@H](N)C(=O)N[C@@H](Cc1ccccc1)C(=O)N[C@@H](CO)C(=O)N[C@@H](CCC(N)=O)C(=O)N[C@@H](CC(N)=O)C(=O)N[C@@H](CCSC)C(=O)N[C@@H](CC(N)=O)C(=O)N[C@H](C(=O)N[C@@H](CCCCN)C(=O)N[C@@H](CC(C)C)C(=O)N[C@@H](CCC(N)=O)C(=O)N[C@@H](CCSC)C(=O)N1CCC[C@H]1C(=O)N[C@@H](CC(C)C)C(=O)N[C@@H](Cc1ccc(O)cc1)C(=O)O)[C@@H](C)CC [3324.0607]	2607 SFC/10^6	70 SFC/10^6	2607 SFC/10^6 and 70 SFC/10^6	–	–	–
CC[C@H](C)[C@H](NC(=O)[C@H](CC(N)=O)NC(=O)[C@H](CCSC)NC(=O)[C@H](CC(N)=O)NC(=O)[C@H](CCC(N)=O)NC(=O)[C@H](CO)NC(=O)[C@H](Cc1ccccc1)NC(=O)[C@@H](NC(=O)[C@@H](NC(=O)[C@H](Cc1c[nH]c2ccccc12)NC(=O)[C@H](CC(C)C)NC(=O)[C@H](C)NC(=O)[C@H](CCCCN)NC(=O)[C@@H](N)CCC(=O)O)[C@@H](C)CC)[C@@H](C)CC)C(=O)N[C@@H](CCCCN)C(=O)O [3324.0615]	67 SFC/10^6	333 SFC/10^6	400 SFC/10^6	–	–	–
CC[C@H](C)[C@H](N)C(=O)N[C@H](C(=O)N[C@@H](Cc1ccccc1)C(=O)N[C@@H](CO)C(=O)N[C@@H](CCC(N)=O)C(=O)N[C@@H](CC(N)=O)C(=O)N[C@@H](CCSC)C(=O)N[C@@H](CC(N)=O)C(=O)N[C@H](C(=O)N[C@@H](CCCCN)C(=O)N[C@@H](CC(C)C)C(=O)N[C@@H](CCCCN)C(=O)N[C@@H](CCSC)C(=O)N1CCC[C@H]1C(=O)N[C@@H](CC(C)C)C(=O)O)[C@@H](C)CC)[C@@H](C)CC [3324.0618]	3067 SFC/10^6	80 SFC/10^6 and 73 SFC/10^6	80 SFC/10^6 and 3067 SFC/10^6 and 73 SFC/10^6	–	–	–
CC[C@H](C)[C@H](NC(=O)[C@@H](N)CC(=O)O)C(=O)N[C@@H](Cc1ccc(O)cc1)C(=O)N[C@@H](CC(N)=O)C(=O)N[C@@H](Cc1ccc(O)cc1)C(=O)N[C@@H](CCSC)C(=O)N[C@@H](CCC(=O)O)C(=O)N1CCC[C@H]1C(=O)N[C@@H](Cc1ccc(O)cc1)C(=O)N[C@H](C(=O)N[C@@H](CO)C(=O)N[C@@H](CCCCN)C(=O)N[C@H](C(=O)N[C@@H](CC(=O)O)C(=O)N1CCC[C@H]1C(=O)O)C(C)C)C(C)C [3324.0663]	302 SFC/10^6 and 107 SFC/10^6	73 SFC/10^6	73 SFC/10^6 and 302 SFC/10^6 and 107 SFC/10^6	–	–	–
CC(C)C[C@H](NC(=O)[C@H](Cc1ccc(O)cc1)NC(=O)[C@H](C)NC(=O)[C@H](CO)NC(=O)[C@H](CCC(=O)O)NC(=O)[C@@H](NC(=O)[C@H](C)NC(=O)[C@H](C)NC(=O)[C@@H](NC(=O)CNC(=O)[C@@H](N)CO)C(C)C)[C@@H](C)O)C(=O)N[C@@H](C)C(=O)N[C@@H](Cc1ccc(O)cc1)C(=O)N[C@@H](CCCNC(=N)N)C(=O)N[C@@H](CC(N)=O)C(=O)O [3324.0829]	347 SFC/10^6 and 167 SFC/10^6	340 SFC/10^6 and 237 SFC/10^6	687 SFC/10^6 and 403 SFC/10^6	–	–	–
CC[C@H](C)[C@H](NC(=O)CNC(=O)[C@@H](N)CCCNC(=N)N)C(=O)N[C@@H](CCC(=O)O)C(=O)N[C@@H](Cc1ccc(O)cc1)C(=O)N[C@H](C(=O)N[C@@H](CCC(N)=O)C(=O)N[C@@H](Cc1c[nH]cn1)C(=O)N[C@@H](CC(N)=O)C(=O)NCC(=O)N[C@H](C(=O)N[C@H](C(=O)N[C@@H](CCC(N)=O)C(=O)N[C@@H](CCC(=O)O)C(=O)N[C@@H](CO)C(=O)O)C(C)C)C(C)C)[C@@H](C)CC [3324.0831]	567 SFC/10^6 and 103 SFC/10^6	220 SFC/10^6	567 SFC/10^6 and 323 SFC/10^6	–	–	–
CC(C)[C@H](NC(=O)CNC(=O)[C@H](CO)NC(=O)[C@H](Cc1ccccc1)NC(=O)[C@H](C)NC(=O)[C@H](Cc1c[nH]c2ccccc12)NC(=O)[C@H](CS)NC(=O)[C@@H](N)CO)C(=O)N[C@@H](C)C(=O)N[C@@H](C)C(=O)N[C@H](C(=O)N[C@@H](CCC(=O)O)C(=O)N[C@@H](CO)C(=O)N[C@@H](C)C(=O)N[C@@H](Cc1ccc(O)cc1)C(=O)O)[C@@H](C)O [3324.0832]	460 SFC/10^6 and 773 SFC/10^6	843 SFC/10^6 and 233 SFC/10^6	1303 SFC/10^6 and 1007 SFC/10^6	–	–	–
CC[C@H](C)[C@H](NC(=O)[C@@H](NC(=O)[C@@H](NC(=O)[C@H](C)NC(=O)[C@@H](NC(=O)[C@H](C)NC(=O)[C@H](CO)NC(=O)[C@H](Cc1c[nH]cn1)NC(=O)[C@@H](NC(=O)[C@H](CCC(N)=O)NC(=O)[C@H](C)NC(=O)[C@H](CC(C)C)NC(=O)[C@H](C)NC(=O)[C@H](CCC(=O)O)NC(=O)[C@@H](N)CCCNC(=N)N)[C@@H](C)O)[C@@H](C)CC)C(C)C)[C@@H](C)CC)C(=O)O [3324.0840]	477 SFC/10^6 and 900 SFC/10^6	1407 SFC/10^6	1883 SFC/10^6 and 900 SFC/10^6	–	–	–
CC[C@H](C)[C@H](NC(=O)[C@H](CCSC)NC(=O)[C@H](CCCNC(=N)N)NC(=O)[C@H](Cc1ccccc1)NC(=O)[C@H](CCCCN)NC(=O)[C@@H](NC(=O)[C@H](CCSC)NC(=O)[C@H](CC(N)=O)NC(=O)[C@H](Cc1ccc(O)cc1)NC(=O)[C@@H](NC(=O)[C@@H](N)CCC(=O)O)[C@@H](C)CC)C(C)C)C(=O)N[C@@H](C)C(=O)NCC(=O)N[C@@H](CCC(N)=O)C(=O)N[C@@H](CCC(=O)O)C(=O)O [3324.0978]	167 SFC/10^6 and 1100 SFC/10^6	667 SFC/10^6	167 SFC/10^6 and 1100 SFC/10^6 and 667 SFC/10^6	–	–	–
CC[C@H](C)[C@H](NC(=O)[C@H](CCC(=O)O)NC(=O)[C@H](CCCNC(=N)N)NC(=O)[C@H](Cc1c[nH]c2ccccc12)NC(=O)[C@H](CCCNC(=N)N)NC(=O)[C@H](Cc1c[nH]cn1)NC(=O)[C@@H](N)CCC(=O)O)C(=O)N[C@@H](Cc1ccc(O)cc1)C(=O)N[C@@H](CC(N)=O)C(=O)N[C@@H](CCSC)C(=O)N[C@H](C(=O)N[C@@H](CCCCN)C(=O)N[C@@H](Cc1ccccc1)C(=O)N[C@@H](CCCNC(=N)N)C(=O)N[C@@H](CCSC)C(=O)O)C(C)C [3324.0986]	300 SFC/10^6 and 80 SFC/10^6 and 402 SFC/10^6	1007 SFC/10^6	300 SFC/10^6 and 1007 SFC/10^6 and 80 SFC/10^6 and 402 SFC/10^6	–	–	–
CC[C@H](C)[C@H](NC(=O)[C@@H]1CCCN1C(=O)[C@H](CC(N)=O)NC(=O)[C@H](C)NC(=O)[C@H](Cc1ccc(O)cc1)NC(=O)[C@@H](N)CCCNC(=N)N)C(=O)N[C@@H](C)C(=O)N[C@@H](Cc1ccccc1)C(=O)N[C@@H](Cc1ccccc1)C(=O)N[C@@H](CCCNC(=N)N)C(=O)N[C@@H](CCCCN)C(=O)N[C@@H](CCC(=O)O)C(=O)N1CCC[C@H]1C(=O)N[C@@H](CC(C)C)C(=O)N[C@@H](CCCCN)C(=O)O [3324.1138]	1697 SFC/10^6	440 SFC/10^6	2137 SFC/10^6	–	–	–
CC[C@H](C)[C@H](NC(=O)[C@H](CCC(=O)O)NC(=O)[C@H](Cc1c[nH]c2ccccc12)NC(=O)[C@@H](NC(=O)CNC(=O)[C@@H](N)CC(=O)O)C(C)C)C(=O)N[C@@H](CCCCN)C(=O)N[C@@H](CO)C(=O)N[C@@H](CC(=O)O)C(=O)N[C@@H](CCCCN)C(=O)N1CCC[C@H]1C(=O)N[C@@H](CC(C)C)C(=O)N[C@@H](CCCCN)C(=O)NCC(=O)N1CCC[C@H]1C(=O)O [3324.1139]	83 SFC/10^6	103 SFC/10^6 and 83 SFC/10^6	103 SFC/10^6 and 167 SFC/10^6	577 SFC/10^6 and 287 SFC/10^6	577 SFC/10^6 and 287 SFC/10^6	–
CC[C@H](C)[C@H](NC(=O)[C@@H](NC(=O)[C@H](CCC(=O)O)NC(=O)[C@H](CC(=O)O)NC(=O)[C@H](Cc1ccccc1)NC(=O)[C@@H](NC(=O)[C@@H](N)CC(N)=O)C(C)C)C(C)C)C(=O)N1CCC[C@H]1C(=O)N[C@H](C(=O)N[C@@H](C)C(=O)N[C@@H](Cc1ccccc1)C(=O)N[C@H](C(=O)N[C@H](C(=O)NCC(=O)N[C@@H](CCCCN)C(=O)O)C(C)C)[C@@H](C)O)[C@@H](C)O [3324.1141]	–	–	–	2258 SFC/10^6 and 820 SFC/10^6	2258 SFC/10^6 and 1083 SFC/10^6	263 SFC/10^6
CC[C@H](C)[C@H](NC(=O)[C@H](CC(N)=O)NC(=O)[C@H](CC(C)C)NC(=O)[C@@H](NC(=O)[C@H](CC(C)C)NC(=O)[C@@H](NC(=O)[C@H](CCCCN)NC(=O)[C@H](C)NC(=O)[C@H](CC(=O)O)NC(=O)[C@@H](N)CO)[C@@H](C)O)C(C)C)C(=O)N[C@@H](CCCCN)C(=O)N[C@@H](Cc1ccc(O)cc1)C(=O)N[C@H](C(=O)N[C@@H](CCCNC(=N)N)C(=O)N1CCC[C@H]1C(=O)O)[C@@H](C)O [3324.1142]	–	–	–	227 SFC/10^6 and 147 SFC/10^6 and 1547 SFC/10^6	227 SFC/10^6 and 147 SFC/10^6 and 1697 SFC/10^6	150 SFC/10^6
CC[C@H](C)[C@H](NC(=O)[C@@H](NC(=O)[C@H](CCCNC(=N)N)NC(=O)[C@H](CC(C)C)NC(=O)[C@H](C)NC(=O)[C@H](CCC(=O)O)NC(=O)[C@@H](NC(=O)[C@H](CC(C)C)NC(=O)[C@@H](NC(=O)[C@H](C)NC(=O)[C@@H](NC(=O)[C@H](Cc1ccc(O)cc1)NC(=O)[C@H](C)NC(=O)[C@@H](N)CC(=O)O)C(C)C)[C@@H](C)O)[C@@H](C)O)C(C)C)C(=O)N[C@@H](C)C(=O)O [3324.1167]	–	–	–	410 SFC/10^6 and 1743 SFC/10^6	1427 SFC/10^6 and 1743 SFC/10^6	1017 SFC/10^6
